Source: PubChem BioAssay (NCI)
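96-well plates; 48 h exposure; 5 concentrations. Endpoints by linear interpolation between flanking doses. Not reached: highest tested concentration assigned. GI50 marks 50% less growth. At the TGI there is no net growth.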

What was measured:
Test in all cases: DTP human tumour cell line panel, 48 h
HOP-92 NSCLC = system: HOP-92 NSCLC
PC-3 prostate = system: PC-3 prostate
SF-539 CNS = system: SF-539 CNS
SF-268 CNS = system: SF-268 CNS
UACC-62 melanoma = system: UACC-62 melanoma
SK-MEL-2 melanoma = system: SK-MEL-2 melanoma
T-47D breast = system: T-47D breast
HOP-62 NSCLC = system: HOP-62 NSCLC
RPMI-8226 leukemia = system: RPMI-8226 leukemia
SN12C renal = system: SN12C renal

SMILES	GI50 (HOP-92 NSCLC) [µM]	TGI (HOP-92 NSCLC) [µM]	GI50 (PC-3 prostate) [µM]	TGI (PC-3 prostate) [µM]	GI50 (SF-539 CNS) [µM]	TGI (SF-539 CNS) [µM]	GI50 (SF-268 CNS) [µM]	TGI (SF-268 CNS) [µM]	GI50 (UACC-62 melanoma) [µM]	TGI (UACC-62 melanoma) [µM]	GI50 (SK-MEL-2 melanoma) [µM]	TGI (SK-MEL-2 melanoma) [µM]	GI50 (T-47D breast) [µM]	TGI (T-47D breast) [µM]	GI50 (HOP-62 NSCLC) [µM]	TGI (HOP-62 NSCLC) [µM]	GI50 (RPMI-8226 leukemia) [µM]	TGI (RPMI-8226 leukemia) [µM]	GI50 (SN12C renal) [µM]	TGI (SN12C renal) [µM]
Cc1ccccc1NC(=O)NC(CC(N)=O)c1ccc2c(c1)nc(-c1cccc(Oc3ccc(C(C)(C)C)cc3)c1)n2CCCN1CCCCC1C (centres undefined)	1.94	7.33	3.94	12	1.82	3.77	1.88	3.88	1.71	3.22	11.1	23.3	2.6	10.5	1.97	4.46	2.49	6.48	4.49	11.1
CC(C)(C)c1ccc(-c2nnc(SCc3ccc(Cl)cc3)n2-c2cccc(C(F)(F)F)c2)cc1		> 100		> 100		> 100		> 100		> 100		> 69.5		> 100		> 100		30.6		14
CC1SC(c2cccs2)N(NC(=O)C(O)c2ccccc2)C1=O (centres undefined)	> 100	> 100	> 100	> 100	> 100	> 100	> 100	> 100	> 100	> 100	> 100	> 100	> 100	> 100	> 100	> 100	> 100	> 100	> 100	> 100
COc1ccc2c(CNCCCCO)cc3cc4c(cc3c2c1)OCO4	0.598	4.4	0.986	7.18	1.26	4.13	0.151	1.15	1.59	3.29	1.63	3.93	3.71	> 46.7	1.98	10.6	0.655	3.77	1.92	7.72
CN(C)CCn1cc(-c2ccc3c(Nc4ccc(CC(=O)Nc5cccc(F)c5)cc4)ncnc3c2)cn1	6.27	> 10	1.75	7.92	0.0918	1.97	1.43	3.39	6.4	> 10	> 10	> 10	1.41	4.54	> 10	> 10	2.32	5.93	1.53	3.64
C=C1C(=O)O[C@H]2[C@H]1CC/C(COC(=O)CCC(=O)OC/C1=C/CC[C@@]3(C)O[C@H]3[C@H]3OC(=O)C(=C)[C@@H]3CC1)=C\CC[C@@]1(C)O[C@@H]21	0.71	2.38	2.58	7.86	1.95	5.58	3.18	14	1.86	6.55	2.89	9.38	1.06	3.67	3.21	10.6	1.22	4.16	2.04	6.63
COc1cc2c(/C=C3\C(=O)Nc4ccc(Br)cc43)c(Cl)n(C)c2cc1C	2.37	17.9	1.17	18.3	1	4.71	1.31	8	0.618	12.9	1.74	5.7	30.8	> 100	0.813	4.47	1.41	16.6	3.05	11.4
COc1ccc(C(=O)Nc2cccc(C3CC(=O)c4c(cc(OC)c(OC)c4OC)O3)c2)cc1 (centres undefined)	1.66	8.31	0.736	27.9	1.66	4.65	2.29	> 100	0.557	10.8	2.09	27.1	2.13	8.1	1.72	> 100	0.726	3.51	1.62	> 100
CC1=C(C(=O)Nc2ccc(F)c(Cl)c2)C(c2cccc(Cl)c2)NC(=O)N1 (centres undefined)	15.5	33	17.2	46.9	19.6	37.2	17.2	39.4	13.2	26.7	15.7	30.5	15.4	53.1	17.5	35	16.3	46.9	16	32.1
O=[N+]([O-])c1ccc2[nH]cc(-c3c4ccccc4cc4[nH]c5ccc([N+](=O)[O-])cc5c34)c2c1	2.25	5.89	1.9	4.43	2	4.98	2.66	9.57	1.63	3.47	2.18	5.34	1.71	4.74	2.54	7.25	2.27	6.32	2.84	7.92
Oc1ccc2ccccc2c1/C=N\Nc1ccccn1	0.403	> 100	0.933	> 100	0.529	> 26.8	0.436	> 100	0.692	13.1		> 49	0.97	> 100	0.416	17	0.654	> 100	1.7	> 100
N#Cc1c2ccccc2c2nnc3cc(Cl)c(Cl)cc3n12	42	> 100	30	73.7	28.5	61.8	27.7	83.3	62.1	> 100	60.7	> 100	> 100	> 100	31.2	> 100	29.6	> 100	23	61.6
